Laboratory results as given in patent US9440972B2, “Pyrido[2,3-d]pyrimidine-2,4(1 H,3H)-dione derivatives” (Hydra Biosciences, Inc., priority 2014, dated 2016).

These compounds were tested against T1, TRPC5 channel (Homo sapiens, UniProt Q9UL62) (assay: High throughput screening assay: Fluo4 cell-based fluorescence assay of intracellular Ca2+ rise). Details: HEK293/TREx cells inducibly expressing TRPC5, 0.027-20 μM in triplicate, NF = no IC50 curve could be fit.
T1 construct: expressed in transfected cells; host or cells: HEK293/TREx (Invitrogen), tetracycline-induced
T1 sequence (Q9UL62 1-973): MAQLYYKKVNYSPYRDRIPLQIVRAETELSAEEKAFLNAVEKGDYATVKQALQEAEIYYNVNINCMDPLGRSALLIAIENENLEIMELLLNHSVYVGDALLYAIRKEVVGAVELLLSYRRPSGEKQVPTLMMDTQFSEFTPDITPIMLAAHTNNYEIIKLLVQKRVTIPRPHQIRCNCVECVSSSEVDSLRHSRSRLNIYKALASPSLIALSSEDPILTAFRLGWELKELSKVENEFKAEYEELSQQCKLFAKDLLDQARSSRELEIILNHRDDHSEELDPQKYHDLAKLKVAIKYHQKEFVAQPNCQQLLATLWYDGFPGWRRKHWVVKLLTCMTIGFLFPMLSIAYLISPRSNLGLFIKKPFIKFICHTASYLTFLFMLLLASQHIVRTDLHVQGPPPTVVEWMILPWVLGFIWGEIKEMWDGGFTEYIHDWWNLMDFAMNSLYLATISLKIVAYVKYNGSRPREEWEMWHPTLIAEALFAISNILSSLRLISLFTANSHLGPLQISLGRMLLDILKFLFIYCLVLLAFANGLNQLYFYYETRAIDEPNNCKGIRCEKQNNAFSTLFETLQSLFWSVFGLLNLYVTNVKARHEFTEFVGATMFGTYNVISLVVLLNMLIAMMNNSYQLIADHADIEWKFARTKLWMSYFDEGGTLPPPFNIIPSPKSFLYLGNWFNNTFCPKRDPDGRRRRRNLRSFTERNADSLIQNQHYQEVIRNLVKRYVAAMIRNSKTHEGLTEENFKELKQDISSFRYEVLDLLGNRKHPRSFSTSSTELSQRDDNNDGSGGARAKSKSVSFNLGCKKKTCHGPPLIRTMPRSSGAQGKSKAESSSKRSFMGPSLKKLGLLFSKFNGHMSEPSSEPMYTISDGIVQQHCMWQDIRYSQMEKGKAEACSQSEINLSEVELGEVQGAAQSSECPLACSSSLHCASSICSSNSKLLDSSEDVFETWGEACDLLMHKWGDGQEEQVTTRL
Excerpt: The assay depended on detection of the rise in intracellular Ca2+ concentration ([Ca2+]i) following channel activation in cells inducibly expressing the TRPC5 channel. Ca2+ rise was quantified with the use of fluorescent Ca2+ indicators that were loaded into cells and thereafter indicated the [Ca2+]i Ca2+ influx followed activation of the TRPC5 channel. Compounds inhibiting the [Ca2+]i rise were considered hits for further investigation.
The commercially available HEK293/TREx line (Invitrogen) was stably transfected with a TRPC5 construct and screened by conventional calcium imaging to find clones with TRPC5 expression following stimulation with 1 μg/ml tetracycline. These cells were maintained in the growth medium recommended by the manufacturer supplemented with 100 μg/ml hygromycin to promote retention of the TRPC5 construct. After growing to near confluency, cells were plated at a density of ˜35,000 cells/well in 384 well CellBind plates (Corning) in the presence of 1 μg/ml tetracycline, and allowed to grow for 20-30 hrs. A nearly confluent monolayer resulted. Cells were then loaded with Ca2+ dye: Fura-2/AM or Fluo4/AM was added to the wells to a final concentration of 4 μM or 0.5 μM, respectively, and incubated for 80 min or 60 min, respectively, at room temperature. Supernatant was then removed from the cells by inverting plates with a sharp flick, and 25 μl Hank's Balanced Salt Solution (HBSS; 0.185 g/l D-glucose, 0.9767 g/l MgS04 (anhydrous), 0.4 g/l KCl, 0.06 g/l KH2PO4 (anhydrous), 0.35 g/l NaHCO3, 8.0 g/l NaCl, and 0.04788 g/l Na2HPO4 (anhydrous); pH 7.4) was then added to each well. Following ˜0.5 hour for recovery from loading, cells were assayed using the Hamamatsu FDSS 6000 system, which permitted illumination alternately at 340 nm and 380 nm for Fura-2 experiments, or at 485 nm for Fluo4 experiments. Frames were acquired at a rate of 0.2 Hz. During the assay, the plates were continuously vortexed, with pipette mixing of wells following addition of each reagent. For the screening assay, 26 μl of a diluted compound stock (at 50 μM) was added to each well for 2 minutes following the collection of a short (4 frame) baseline. 13 μl 62 mM high-Ca2+Ringer solution (4.17 ml of normal ringer (with 2 mM Ca2+) plus 5.83 ml of isotonic calcium ringer (105 mM Ca2+; in this ringer all sodium has been replaced with calcium)) was then added to each well, achieving a final concentration of 14 mM Ca2+ and 10 μM test compound. Data was collected for ˜3 minutes following addition of high Ca2+Ringer, where the fluorescent intensity (for Fluo4) and the F340/F380 ratio (for Fura-2) were proportional to the [Ca2+]i Negative controls consisted of HEK293/TREx TRPC5 cells exposed to high Ca2+ solution, but no compound. Positive control conditions consisted of addition of 2-APB, a promiscuous blocker of TRPC5 and other channels, to columns 23 and 24 of the plates, to a final concentration of 200 μM. These controls defined a screening window, and “hits” were defined as those compounds inhibiting the fluorescence response by at least 40%. IC50 values were determined for compounds defined as “hits.” The Fluo4 cell-based fluorescence assay was used to determine the intracellular Ca2+ concentration in the presence of varying drug concentration. Final concentrations of compounds tested were 20 μM, 6.667 μM, 2.222 μM, 0.741 μM, 0.247 μM, 0.082 μM, and 0.027 μM. Compounds were tested in triplicate at all concentrations. Standard software was used to fit IC50 curves. A value of NF was assigned when no IC50 curves could not be fit.
Additionally or alternatively, efficacy can be represented as % inhibition in the presence (of a given concentration of compound) versus the absence of compound or in comparison to a control compound. For example, efficacy can be represented as % inhibition of ion flux in the presence versus the absence of compound.

Going from CC(C)c1ccccc1-c1cnc2c(c1Cc1ccc(Cl)cc1)c(=O)n(CCCO)c(=O)n2C [Compound 38, 5-(4-chlorobenzyl)-3-(3-hydroxypropyl)-6-(2-isopropylphenyl)-1-methylpyrido[2,3-d]pyrimidine-2,4(1H,3H)-dione] to CC(C)c1ccccc1-c1cnc2c(c1C(O)c1ccc(Cl)cc1)c(=O)n(CCCO)c(=O)n2C (stereo not drawn) [Compound 20, 5-((4-chlorophenyl)(hydroxy)methyl)-3-(3-hydroxypropyl)-6-(2-isopropylphenyl)-1-methylpyrido[2,3-d]pyrimidine-2,4(1H,3H)-dione], the IC50 rises from 215 nM to 977 nM (4.5-fold). The first is the more potent here.

Compared with Cn1c(=O)n(CCCO)c(=O)c2c(Cc3ccc(C(F)(F)F)nc3)c(Oc3cccc(OC(F)(F)F)c3)cnc21 [Compound 32, 3-(3-hydroxypropyl)-1-methyl-6-(3-(trifluoromethoxy)phenoxy)-5-((6-(trifluoromethyl)pyridin-3-yl)methyl)pyrido[2,3-d]pyrimidine-2,4(1H,3H)-dione], Cn1c(=O)n(CCCO)c(=O)c2c(Cc3ccc(C(F)(F)F)nc3)c(Oc3cccc(C(F)(F)F)c3)cnc21 [Compound 24, 3-(3-hydroxypropyl)-1-methyl-6-(3-(trifluoromethyl)phenoxy)-5-((6-(trifluoromethyl)pyridin-3-yl)methyl)pyrido[2,3-d]pyrimidine-2,4(1H,3H)-dione] is 3.8-fold higher in IC50: 350 nM for the first, 1340 nM for the second. The first is the more potent here.

Going from Cn1c(=O)n(CCCO)c(=O)c2c(Cc3ccc(Cl)cc3)c(Oc3cccc(Cl)c3)cnc21 [Compound 26, 5-(4-chlorobenzyl)-6-(3-chlorophenoxy)-3-(3-hydroxypropyl)-1-methylpyrido[2,3-d]pyrimidine-2,4(1H,3H)-dione] to Cn1c(=O)n(CCCO)c(=O)c2c(Cc3ccc(Cl)cc3)c(Oc3cncc(Cl)c3)cnc21 [Compound 16, 5-(4-chlorobenzyl)-6-((5-chloropyridin-3-yl)oxy)-3-(3-hydroxypropyl)-1-methylpyrido[2,3-d]pyrimidine-2,4(1H,3H)-dione], the IC50 rises from 1290 nM to 3740 nM (2.9-fold).

Going from Cn1c(=O)n(CCCO)c(=O)c2c(Cc3ccc(C(F)(F)F)nc3)c(Oc3cccc(Cl)c3)cnc21 [Compound 43, 6-(3-chlorophenoxy)-3-(3-hydroxypropyl)-1-methyl-5-((6-(trifluoromethyl)pyridin-3-yl)methyl)pyrido[2,3-d]pyrimidine-2,4(1H,3H)-dione] to Cn1c(=O)n(CCCO)c(=O)c2c(Cc3ccc(C(F)(F)F)cc3)c(Oc3cccc(C(F)(F)F)c3)cnc21 [Compound 22, 3-(3-hydroxypropyl)-1-methyl-5-(4-(trifluoromethyl)benzyl)-6-(3-(trifluoromethyl)phenoxy)pyrido[2,3-d]pyrimidine-2,4(1H,3H)-dione], the IC50 falls from 1420 nM to 180 nM (7.9-fold). The second is the more potent here.

Going from CC(C)CC(O)c1c(Oc2cccc(OC(F)(F)F)c2)cnc2c1c(=O)n(CCCO)c(=O)n2C (stereo not drawn) [Compound 44, 5-(1-hydroxy-3-methylbutyl)-3-(3-hydroxypropyl)-1-methyl-6-(3-(trifluoromethoxy)phenoxy)pyrido[2,3-d]pyrimidine-2,4(1H,3H)-dione] to CC(C)CCc1c(Oc2cccc(OC(F)(F)F)c2)cnc2c1c(=O)n(CCCO)c(=O)n2C [Compound 49, 3-(3-hydroxypropyl)-5-isopentyl-1-methyl-6-(3-(trifluoromethoxy)phenoxy)pyrido[2,3-d]pyrimidine-2,4(1H,3H)-dione], the IC50 rises from 3450 nM to > 20000 nM. The first is the more potent here.

CC(C)c1cccc(Oc2cnc3c(c2Cc2ccccc2)c(=O)n(CCCO)c(=O)n3C)c1 [Compound 28, 5-benzyl-3-(3-hydroxypropyl)-6-(3-isopropylphenoxy)-1-methylpyrido[2,3-d]pyrimidine-2,4(1H,3H)-dione] and CC(C)c1ccccc1Oc1cnc2c(c1Cc1ccc(F)cc1)c(=O)n(CCCO)c(=O)n2C [Compound 41, 5-(4-fluorobenzyl)-3-(3-hydroxypropyl)-6-(2-isopropylphenoxy)-1-methylpyrido[2,3-d]pyrimidine-2,4(1H,3H)-dione] are within 1.5-fold of each other in IC50: 28.5 nM for the first, 33.8 nM for the second.

CC(C)CCc1c(Oc2cccc(Cl)c2)cnc2c1c(=O)n(CCCO)c(=O)n2C [Compound 48, 6-(3-chlorophenoxy)-3-(3-hydroxypropyl)-5-isopentyl-1-methylpyrido[2,3-d]pyrimidine-2,4(1H,3H)-dione] and CC(C)CCc1c(Oc2cccc(C(F)(F)F)c2)cnc2c1c(=O)n(CCCO)c(=O)n2C [Compound 46, 3-(3-hydroxypropyl)-5-isopentyl-1-methyl-6-(3-(trifluoromethyl)phenoxy)pyrido[2,3-d]pyrimidine-2,4(1H,3H)-dione] cannot be ordered by IC50: > 10000 nM for the first, > 20000 nM for the second.

Compared with Cn1c(=O)n(CCCO)c(=O)c2c(Cc3ccc(Cl)cc3)c(-c3cccc(F)c3)cnc21 [Compound 25, 5-(4-chlorobenzyl)-6-(3-fluorophenyl)-3-(3-hydroxypropyl)-1-methylpyrido[2,3-d]pyrimidine-2,4(1H,3H)-dione], Cn1c(=O)n(CCCO)c(=O)c2c(Cc3ccc(Cl)cc3)c(Oc3cncc(F)c3)cnc21 [Compound 15, 5-(4-chlorobenzyl)-6-((5-fluoropyridin-3-yl)oxy)-3-(3-hydroxypropyl)-1-methylpyrido[2,3-d]pyrimidine-2,4(1H,3H)-dione] is 10-fold higher in IC50: 739 nM for the first, 7530 nM for the second. The first is the more potent here.

Compared with Cn1c(=O)n(CCCO)c(=O)c2c(Cc3ccc(Cl)cc3)c(Oc3cccnc3)cnc21 [Compound 14, 5-(4-chlorobenzyl)-3-(3-hydroxypropyl)-1-methyl-6-(pyridin-3-yloxy)pyrido[2,3-d]pyrimidine-2,4(1H,3H)-dione], CC(C)CCc1c(OC(C)C)cnc2c1c(=O)n(CCCO)c(=O)n2C [Compound 37, 3-(3-hydroxypropyl)-5-isopentyl-6-isopropoxy-1-methylpyrido[2,3-d]pyrimidine-2,4(1H,3H)-dione] is 2.8-fold lower in IC50: 3250 nM for the first, 1160 nM for the second. The second is the more potent here.
